Where two headings read alike, the source gives them in different places.
Columns and labels:
AML5 = assay: CellTiter-Glo cell viability, AML5 leukemia cell line; format: cell-based; conditions: Table 5
Description: (§1) Cell growth inhibitory activity of representative Compounds of the Disclosure was determined using the CellTiter-Glo® Luminescent Cell Viability Assay. Cells were seeded in 384-well white opaque cell culture plates at a density of 2,000 cells/well with serially diluted compounds and incubated at 37° C. in an atmosphere of 95% air and 5% CO2 for 4 days. Cell viability was determined using the CellTiter-Glo® Luminescent Cell Viability Assay Kit (Promega, Madison, Wis.) according to the manufacture's instruction. Briefly, a volume of CellTiter-Glo® Reagent equal to the volume of cell culture medium was added to each well, and then the plates were incubated at room temperature for 10-20 minutes. The luminescent signal was measured using a Tecan Infinite M1000 multimode microplate reader (Tecan, Morrisville, N.C.). The half maximal inhibitory concentration (IC50) was calculated using the GraphPad Prism 5 software (GraphPad Software, La Jolla, Calif.).
(§2) Cpd. Nos. 18 and 19 were tested in various leukemia cell lines using the CellTiter-Glo® Luminescent Cell Viability Assay as described in Example 35.

RS4;11 xenograph tumors = assay: RS4;11 xenograft model; format: in vivo, SCID mice; conditions: SCID mice, i.v. 5 mg/kg at days 1, 3, 5 per week for two weeks, FIG. 4
Description: Cpd. Nos. 7 and 11 were dissolved in 10% PCP [10% PEG400 (Sigma), 3% Cremophor (Sigma), and 87% PBS (Gibco)]. The pH of the drug solutions were checked before use and adjusted with 0.5N NaOH to be between pH 6.5 and 8.0 for IV (intravenous) administration.
RS4;11 cells were maintained at 37° C., 95% air, 5% carbon dioxide in Improved MEM (Richter's Mod.) supplemented with 10% Fetal Bovine Serum, 100 units/ml of penicillin and 100 units/ml of streptomycin (GIBCO™, Invitrogen Corp.) and passaged twice weekly.
Tumor cells for xenografts were harvested with Trypsin (0.05%)-EDTA (0.53 mM) (GIBCO™, Invitrogen Corp.), growth medium added and cells placed on ice. Cells were washed once with 1×PBS (GIBCO™, Invitrogen Corp.) and re-suspended in PBS. After washing in PBS, cells were re-suspended in an ice cold mixture of 1:1 PBS and Matrigel (BD Biosciences, Invitrogen Corp.) for a final Matrigel protein concentration of 5 mg/ml. Cells at 5×10^6 cells in 0.1 ml were injected subcutaneously (s.c.) into the flank region of each mouse using a 25 gauge needle. All tumors were inoculated into SCID mice (strain:236) C.B-17 SCID, Charles River.
The size of tumors growing in the mice was measured in two dimensions using calipers. Tumor volume (mm^3)═(A×B^2)/2 where A and B are the tumor length and width (in mm), respectively. During treatment, tumor volume and body weight were measured three times a week. After the treatment was stopped, tumor volume and body weight was measured at least once a week.
Tumors were not allowed to exceed 10% of the animals total body weight. If an animal had two or more tumors the total weight of all tumors were not allowed to exceed 10% of the animal's total body weight. At the end of the experimental period or when tumor size approached 10% of the total body weight, the animal was euthanized.
Before treatment began, tumors were allowed to grow to 100-200 mm^3 in volume, at which point the blood vessel supplies to the tumor should have been well established. Mice with tumors within acceptable size range were randomized into treatment groups of seven mice. Cpd. Nos. 7 and 11 were given i.v. at 10 mg/kg at days 1,3, and 5 per week for two weeks. The Control group received vehicle alone. Cpd. Nos. 16, 18, 22 and 48 were given i.v. at 5 mg/kg at days 1, 3, and 5 per week for two weeks. The Control group received vehicle alone.
(§3) Representative Compounds of the Disclosure were tested in the RS4;11 and other xenograph models using similar techniques. […] No. 22 in the MDA-MB-231 TNBC model.

BRD4 = biological target: T1, BRD4 (Homo sapiens, UniProt O60885); assay: Western blot, degradation of BRD4 in MOLM-13 cells; format: cell-based; conditions: 3 h, as compared to Compound A, FIG. 2
T1 construct: Collected cells were lysed in lysis buffer; endogenous in cells; host or cells: RS4;11 and MOLM-13 leukemia cells
Description: (§4) Cells were treated with compounds at the indicated concentrations for 2.5 h and 3 h, respectively, for RS4;11 (see FIG. 1) and MOLM-13 (see FIG. 2) cells. Compound A is ((S)-3-benzyl-6,9-dimethyl-2-((1-methyl-1H-pyrazol-4-yl)ethynyl)-4H,6H-thieno[2,3-e][1,2,4]triazolo[3,4-c][1,4]oxazepine). See Cpd. No. 85 of U.S. Appl. No. 62/295,271.
(§5) Collected cells were lysed in lysis buffer [1% CHAPS, 150 mM NaCl, 20 mM Tris-HCl, 1 mM. EDTA, 1 mM EGTA, and COMPLETE proteinase inhibitor (Roche)] for 30 minutes on ice. Protein concentrations were determined using the Bio-Rad Protein Assay Dye reagent. Whole tumor lysates (20 μg) were separated on a 4-20% Novex gels (Invitrogen). The separated proteins were transferred to a PVDF membrane (BIO-RAD) and the PVDF membrane was then blotted with 5% Blotting-Grade Blocker (BIO-RAD) for 1 hour at room temperature. The primary antibodies used were BRD4 rabbit polyclonal antibody [Bethyl Laboratories, Inc, cat #A301] and BRD2 antibody.
(§6) The BIO-RAD Clarity Western ECL Substrates (BIO-RAD) and HyBlot CL film (Denville) were used for signal development and detection using a SRX-101A tabletop processor (Konica Minolta).

BRD2 = biological target: T2, BRD2 (Homo sapiens, UniProt P25440); assay: Western blot, degradation of BRD2 in MOLM-13 cells; format: cell-based; conditions: 3 h, as compared to Compound A, FIG. 2
T2 construct: endogenous in cells; host or cells: RS4;11 and MOLM-13 leukemia cells
Description: as §4, §5, §6

MDA-MB-157 = assay: WST-8 cell growth inhibition assay, MDA-MB-157; format: cell-based; conditions: Homo sapiens, WST-8, Table 6
Description: (§7) Cpd. Nos. 7 and 18 were tested in various triple-negative breast cancer cell lines using the WST-8 cell growth assay.

MDA-MB-468 = assay: WST-8 cell growth inhibition assay, MDA-MB-468; format: cell-based; conditions: Homo sapiens, WST-8, Table 6
Description: as §7

RS4;11 = assay: CellTiter-Glo cell growth inhibition, RS4;11; format: cell-based; conditions: Homo sapiens
Procedure, shortened: (§8)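 Leukemia cells seeded at 2,000 cells/well with serially diluted compounds, 4 days at 37 °C, 5% CO2. Viability by CellTiter-Glo luminescence after 10-20 min at RT. IC50 calculated from the curves.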

MOLM-13 = assay: CellTiter-Glo cell growth inhibition, MOLM-13; format: cell-based; conditions: Homo sapiens
Procedure, shortened: as §8

HL60 = assay: CellTiter-Glo cell viability, HL60 leukemia cell line; format: cell-based; conditions: Homo sapiens, HL-60, Table 5
Description: as §1, §2

MOLM16 = assay: CellTiter-Glo cell viability, MOLM16 leukemia cell line; format: cell-based; conditions: Table 5
Description: as §1, §2

WHIM24 breast cancer PDX = WHIM24 breast cancer PDX model; format: in vivo; conditions: FIG. 5
Description: as §3

MDA-MB-474 = assay: WST-8 cell growth inhibition assay, MDA-MB-474; format: cell-based; conditions: WST-8, Table 6
Description: as §7

T2 sequence (P25440 whole entry): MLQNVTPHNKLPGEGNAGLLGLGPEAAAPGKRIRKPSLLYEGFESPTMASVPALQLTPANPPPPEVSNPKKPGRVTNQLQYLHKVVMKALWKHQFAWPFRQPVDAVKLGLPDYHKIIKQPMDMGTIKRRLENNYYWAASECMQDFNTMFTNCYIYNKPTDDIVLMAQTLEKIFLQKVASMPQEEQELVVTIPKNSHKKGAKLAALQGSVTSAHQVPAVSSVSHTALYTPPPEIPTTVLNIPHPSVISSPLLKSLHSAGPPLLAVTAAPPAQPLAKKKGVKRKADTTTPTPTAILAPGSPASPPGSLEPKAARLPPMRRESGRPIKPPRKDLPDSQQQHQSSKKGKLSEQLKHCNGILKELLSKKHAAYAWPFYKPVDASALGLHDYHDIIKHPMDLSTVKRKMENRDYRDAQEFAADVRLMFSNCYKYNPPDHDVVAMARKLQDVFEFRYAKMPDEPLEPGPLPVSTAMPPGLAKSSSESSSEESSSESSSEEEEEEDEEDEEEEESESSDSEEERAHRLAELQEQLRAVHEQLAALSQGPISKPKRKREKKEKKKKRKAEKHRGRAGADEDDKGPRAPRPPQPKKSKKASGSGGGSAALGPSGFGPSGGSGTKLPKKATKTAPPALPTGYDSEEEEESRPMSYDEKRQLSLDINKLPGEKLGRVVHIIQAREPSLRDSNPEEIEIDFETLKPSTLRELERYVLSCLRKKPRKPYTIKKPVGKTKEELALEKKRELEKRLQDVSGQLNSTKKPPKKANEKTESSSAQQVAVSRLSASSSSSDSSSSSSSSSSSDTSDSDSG

IC50 (AML5): < 0.01 nM | degradation of BRD4 protein (Western blot) (BRD4): induce degradation | degradation of BRD2 protein (Western blot) (BRD2): induce degradation | IC50 (MDA-MB-157): 0.06 ± 0.01 nM | IC50 (MDA-MB-468): 0.78 ± 0.06 nM | IC50 (RS4;11; RS4-11, 96 h, 4 days, Table 4, read-out: RS-4, 11 IC50): 0.03 nM | IC50 (RS4;11; RS4-11, Table 5, read-out: IC50 (nM) RS4, 11): 0.004 ± 0.001 nM | IC50 (MOLM-13; MOLM-13, 96 h, 4 days, Table 4, read-out: MOLM-13 IC50): 1 nM | IC50 (MOLM-13; MOLM-13, Table 5, read-out: IC50 (nM) MOLM13): 0.5 nM | IC50 (HL60): 0.003 ± 0.001 nM | IC50 (MOLM16): < 0.01 nM | IC50 (MDA-MB-474): 0.31 ± 0.01 nM
Compound: Cc1nnc2n1-c1sc(C#Cc3cnn(CCCC#Cc4cccc5c4CN(C4CCC(=O)NC4=O)C5=O)c3)c(Cc3ccccc3)c1CO[C@H]2C (stereo partly drawn) [Cpd. No. 18, 3-(4-(5-(4-(((S)-3-benzyl-6,9-dimethyl-4H,6H-thieno[2,3-e][1,2,4]triazolo[3,4-c][1,4]oxazepin-2-yl)ethynyl)-1H-pyrazol-1-yl)pent-1-yn-1-yl)-1-oxoisoindolin-2-yl) piperidine-2,6-dione]
tumor regression in RS4;11 xenograph tumors (RS4;11 xenograph tumors): induce tumor regression | tumor regression in the WHIM24 breast cancer PDX model (WHIM24 breast cancer PDX): induces tumor regression
